Data on 25 compounds can be found in publication PMC9568543, “Bee-safe peptidomimetic acaricides achieved by comparative genomics” (Scientific Reports, 2022).

Values joined by “and” are separate entries in the source; they are usually repeats but may differ in a detail not shown here. Equal entries are not always repeated. Where a SMILES comes first, the peptide text is derived from it. Where no end group is shown, it is not given here. [ ]: non-standard residue; d: D form. Phe(4-NO2) = N[C@@H](Cc1ccc([N+](=O)[O-])cc1)C(=O)O; Oic = O=C(O)[C@@H]1C[C@@H]2CCCC[C@@H]2N1; Phe(4-Cl) = N[C@@H](Cc1ccc(Cl)cc1)C(=O)O; Phe(4-F) = N[C@@H](Cc1ccc(F)cc1)C(=O)O; Hyp = O=C(O)[C@@H]1C[C@@H](O)CN1; β3hF = N[C@H](CC(=O)O)Cc1ccccc1; β3hL = CC(C)C[C@H](N)CC(=O)O; β3hP = O=C(O)C[C@@H]1CCCN1

Data set [1] concerns the target T1, Varroa mite proctolin receptor (VdProctR) (Varroa destructor, UniProt A0A7T1TE40). The data set is described as follows: Receptor activity assay, CHO cell line stably expressing the receptor, second set of ligands. The conditions noted are these: for Fold change: EC50 relative to proctolin, second set (stable expression). The class given is cell-based. As to the method: (§1) Approximately thirty hours after transfection, the cells were collected and preincubated with coelenterazine h for the functional assay, as previously described[30],[31],[52]. The ligands in serial dilutions were loaded into 96-well opaque plates. Cells treated with coelenterazine h were injected into each well on an Orion microplate luminometer (Berthold) luminescent plate reader. The luminescence was measured for 20 s immediately after the cell injections. Data analyses were performed to determine the accumulated luminescence value for 20 s after extraction of blank-well luminescence. […] The three biological replications were regressed for the dose–response curves with 95% confidence intervals (Table 1). For the tests of the second set of ligands, we used the cell line that stably expressed VdProctR, which were selected by Zeocin for 5 passages.

In the next data set the test system is worker honey bee. The data set is described as follows: Acute toxicity on worker honey bee by injection, 24 h. The settings on record: 50 nL of 200 µM (10 pmol), 24 h observation, n = 4. On the procedure:
For honey bee (Apis mellifera) assays, honey bee workers from healthy colonies were collected from Honeybee Valley of Ghent University, Belgium, and maintained in cages on sugar dough and water, under standardized conditions of 28–30 °C, 60–65% air humidity and continuous darkness. The colony were maintained with a periodic sanitary control that the honeybee hives are free of pathogens, diseases and viruses. There was no Varroa mite infection in the honeybee hives at the moment of collecting the workers for the assays. […] This was realized by injecting a volume of 50 nL of a concentration of the compound of 200 µM. Potential effects on survival were scored at 24 h after injection. […] This test was done with the following compounds were tested: 2439, 2334, 2336, Ac-2442 and controls. Subsequently, working solutions were freshly prepared prior to the bioassays by diluting the stock with distilled water to the required concentration.

Data set [2] addresses T1, Varroa mite proctolin receptor (VdProctR). The data set is described as follows: Receptor activity assay (aequorin luminescence), CHO cells transiently expressing the receptor, first set of ligands. The class given is cell-based. The conditions noted are these: for Fold change: EC50 relative to proctolin, first set (transient expression); for efficacy (maximal response) compared with proctolin: activities at 1 μM and 10 μM; for EC50: cells with transient expression of the receptor; for potency of double-replacement analog over the corresponding single Y2 replacement analog (factor): 2338 vs 2333, 2337 vs 2329. On the procedure:
as §1

In data set [3] the test system is proctolin myotropic assays in cockroach, locust and beetle species. The settings on record: cited from earlier work.

T1 sequence (A0A7T1TE40 entry or part of it): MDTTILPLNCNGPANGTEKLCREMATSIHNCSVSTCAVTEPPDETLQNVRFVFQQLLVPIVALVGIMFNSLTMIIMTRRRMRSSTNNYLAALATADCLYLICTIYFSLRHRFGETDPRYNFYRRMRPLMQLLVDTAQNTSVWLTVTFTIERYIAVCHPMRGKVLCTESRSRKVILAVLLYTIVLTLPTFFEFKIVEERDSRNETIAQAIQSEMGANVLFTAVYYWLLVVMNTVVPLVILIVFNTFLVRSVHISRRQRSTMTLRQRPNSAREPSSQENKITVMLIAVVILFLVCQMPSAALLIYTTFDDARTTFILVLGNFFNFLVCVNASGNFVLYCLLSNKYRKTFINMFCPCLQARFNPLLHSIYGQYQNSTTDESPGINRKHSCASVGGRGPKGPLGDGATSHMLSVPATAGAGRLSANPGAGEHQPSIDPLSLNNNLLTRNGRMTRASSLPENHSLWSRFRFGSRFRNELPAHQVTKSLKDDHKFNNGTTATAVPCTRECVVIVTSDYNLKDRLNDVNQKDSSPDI

In data set [1], `CC(=O)N[C@@H](CCCNC(=N)N)C(=O)N[C@@H](Cc1ccc(F)cc1)C(=O)N[C@@H](CC(C)C)C(=O)N1C[C@H](O)C[C@H]1C(=O)N[C@H](C(=O)O)[C@@H](C)O` [Ac-2441, Ac-R[Phe(4-F)]L[HyP]T] (Ac-R[Phe(4-F)]L[Hyp]T-OH; N-terminus and C-terminus assumed) had a Fold change of 61.5.
On to `CC(=O)N[C@@H](CCCNC(=N)N)C(=O)N[C@@H](Cc1ccc([N+](=O)[O-])cc1)C(=O)N[C@@H](CC(C)C)C(=O)N1C[C@H](O)C[C@H]1C(=O)N[C@H](C(=O)O)[C@@H](C)O` [Ac-2442, Ac-R[Phe(4-NO2)]L[HyP]T] (Ac-R[Phe(4-NO2)]L[Hyp]T-OH), for which the “negative effects after injection into thorax” value in the data set on worker honey bee was “did not show any negative effects”.
Regarding `CC(=O)N[C@@H](CCCNC(=N)N)C(=O)N[C@@H](Cc1ccc(Cl)cc1)C(=O)N[C@@H](CC(C)C)C(=O)N1C[C@H](O)C[C@H]1C(=O)N[C@H](C(=O)O)[C@@H](C)O` [Ac-2443, Ac-R[Phe(4-Cl)]L[HyP]T] (Ac-R[Phe(4-Cl)]L[Hyp]T-OH), the Fold change in data set [1] is reported as 37.5.
For `CC(C)C[C@H](NC(=O)[C@H](Cc1ccc(O)cc1)NC(=O)[C@@H](N)CCCNC(=N)N)C(=O)N1CCC[C@H]1C(=O)N[C@@H](C(=O)O)[C@H](C)O` [Analog 2326, RYLP[dT]] (H-RYLP[dT]-OH; N-terminus and C-terminus assumed), the Fold change in data set [2] is on record as 7654.8.
With `CC(C)C[C@H](NC(=O)[C@H](Cc1ccc(O)cc1)NC(=O)[C@@H](N)CCCNC(=N)N)C(=O)N1CCC[C@@H]1C(=O)N[C@H](C(=O)O)[C@@H](C)O` [Analog 2327, RYL[dP]T] (H-RYL[dP]T-OH; N-terminus and C-terminus assumed), in data set [2], the Fold change was found to be 1881.1.
On the same count and under the same terms, for `CC(C)C[C@@H](NC(=O)[C@H](Cc1ccc(O)cc1)NC(=O)[C@@H](N)CCCNC(=N)N)C(=O)N1CCC[C@H]1C(=O)N[C@H](C(=O)O)[C@@H](C)O` [Analog 2328, RY[dL]PT] (H-RY[dL]PT-OH; N-terminus and C-terminus assumed) the value was 558.8; for `CC(C)C[C@H](NC(=O)[C@@H](Cc1ccc(O)cc1)NC(=O)[C@@H](N)CCCNC(=N)N)C(=O)N1CCC[C@H]1C(=O)N[C@H](C(=O)O)[C@@H](C)O` [Analog 2329, R[dY]LPT] (H-R[dY]LPT-OH; N-terminus and C-terminus assumed), 824.5.
Consider `CC(C)C[C@H](NC(=O)[C@H](Cc1ccc(O)cc1)NC(=O)[C@H](N)CCCNC(=N)N)C(=O)N1CCC[C@H]1C(=O)N[C@H](C(=O)O)[C@@H](C)O` [Analog 2330, [dR]YLPT] (H-[dR]YLPT-OH; N-terminus and C-terminus assumed), for which, in data set [2], the “efficacy (maximal response) compared with proctolin” value (shortened to “efficacy … compared with proctolin”) is given as “higher than that of proctolin”. Further, in data set [2] (first set of peptidomimetics, listed as R1 replacement by dR, read-out: EC50), the EC50 stood at 5.62 nM. The “activity in earlier in vivo myotropic bioassays” value in data set [3] is given as “no activity”.
For the compound `CC(C)C[C@@H](CC(=O)N1CCC[C@H]1C(=O)N[C@H](C(=O)O)[C@@H](C)O)NC(=O)[C@H](Cc1ccc(O)cc1)NC(=O)[C@@H](N)CCCNC(=N)N` [Analog 2332, RY[β3L]PT] (H-RY[β3hL]PT-OH), in data set [2], the Fold change worked out at 661.7.
Same read-out and setting: for `CC(C)C[C@H](NC(=O)C[C@H](Cc1ccccc1)NC(=O)[C@@H](N)CCCNC(=N)N)C(=O)N1CCC[C@H]1C(=O)N[C@H](C(=O)O)[C@@H](C)O` [Analog 2333, R[β3F]LPT] (H-R[β3hF]LPT-OH) the value was 572.0.
For `CC(C)C[C@H](NC(=O)[C@@H](Cc1ccc(O)cc1)NC(=O)[C@@H](N)CCCNC(=N)N)C(=O)N1C[C@H](O)C[C@H]1C(=O)N[C@H](C(=O)O)[C@@H](C)O` [Analog 2337, R[dY]L[HyP]T] (H-R[dY]L[Hyp]T-OH; N-terminus and C-terminus assumed), in data set [2], the “efficacy (maximal response)” value is reported as “full efficacy”, the “potency of double-replacement analog over the corresponding single Y2 replacement analog (factor)” value worked out at 4 and the Fold change stood at 143.5.
In the case of `CC(C)C[C@H](NC(=O)C[C@H](Cc1ccccc1)NC(=O)[C@@H](N)CCCNC(=N)N)C(=O)N1C[C@H](O)C[C@H]1C(=O)N[C@H](C(=O)O)[C@@H](C)O` [Analog 2338, R[β3F]L[HyP]T] (H-R[β3hF]L[Hyp]T-OH), in data set [2], the “efficacy (maximal response)” value was “full efficacy”, the “potency of double-replacement analog over the corresponding single Y2 replacement analog (factor)” value is 8 and the Fold change turned out to be 136.1. The EC50 in data set [2] (EC50, first set of peptidomimetics) is 33 nM and 33.2 nM.
`CC(C)C[C@H](NC(=O)[C@@H](Cc1ccc(O)cc1)NC(=O)[C@@H](N)CCCNC(=N)N)C(=O)N1[C@H](C(=O)N[C@H](C(=O)O)[C@@H](C)O)C[C@@H]2CCCC[C@@H]21` [Analog 2340, R[dY]L[Oic]T] (H-R[dY]L[Oic]T-OH) displayed a Fold change in data set [2] of 529.7.
In data set [1], `CC(C)C[C@H](NC(=O)[C@H](Cc1ccc(F)cc1)NC(=O)[C@@H](N)CCCNC(=N)N)C(=O)N1CCC[C@H]1C(=O)N[C@H](C(=O)O)[C@@H](C)O` [Analog 2438, R[Phe(4-F)]LPT] (H-R[Phe(4-F)]LPT-OH) gave an EC50 of 16.7 nM and a Fold change of 0.7.
Regarding `CC(C)C[C@H](NC(=O)[C@H](Cc1ccc([N+](=O)[O-])cc1)NC(=O)[C@@H](N)CCCNC(=N)N)C(=O)N1CCC[C@H]1C(=O)N[C@H](C(=O)O)[C@@H](C)O` [Analog 2439, R[Phe(4-NO2)]LPT] (H-R[Phe(4-NO2)]LPT-OH), in the data set with worker honey bee, the “negative effects after injection into thorax” value is “did not show any negative effects”.
In data set [1], `CC(C)C[C@H](NC(=O)[C@H](Cc1ccc(Cl)cc1)NC(=O)[C@@H](N)CCCNC(=N)N)C(=O)N1CCC[C@H]1C(=O)N[C@H](C(=O)O)[C@@H](C)O` [Analog 2440, R[Phe(4-Cl)]LPT] (H-R[Phe(4-Cl)]LPT-OH) came in with an EC50 of 5.73 nM and a Fold change of 0.2.
Turning to `CC(C)C[C@H](NC(=O)[C@H](Cc1ccc(F)cc1)NC(=O)[C@@H](N)CCCNC(=N)N)C(=O)N1C[C@H](O)C[C@H]1C(=O)N[C@H](C(=O)O)[C@@H](C)O` [Analog 2441, R[Phe(4-F)]L[HyP]T] (H-R[Phe(4-F)]L[Hyp]T-OH; N-terminus and C-terminus assumed), the Fold change in data set [1] was found to be 0.7. The “activity compared with proctolin” value in data set [1] (second set, stable expression) is “higher activity than proctolin”.
As to GRYLPT [Analog G1, GRYLPT], the Fold change in data set [2] stood at 199.7.
In data set [2], RGYLPT [Analog G2, RGYLPT] yielded a Fold change of 71648.2.
The same measure, in the same setting: for RYGLPT [Analog G3, RYGLPT] the value was 91508.8.
For the compound RYLGPT [Analog G4, RYLGPT], the Fold change in data set [2] is 5444.9.
On the same count and under the same terms, the result for RYLPGT [Analog G5, RYLPGT] reads 3095.5.
Consider RYLPTG [Analog G6, RYLPTG], for which, in data set [2], the Fold change was 4088.2 and the “efficacy … compared with proctolin” value is “higher than that of proctolin”.
For “RYL[HyP]T [Analog 2334] (H-RYL[Hyp]T-OH; N-terminus and C-terminus assumed; SMILES CC(C)C[C@H](NC(=O)[C@H](Cc1ccc(O)cc1)NC(=O)[C@@H](N)CCCNC(=N)N)C(=O)N1C[C@H](O)C[C@H]1C(=O)N[C@H](C(=O)O)[C@@H](C)O)”, the “efficacy … compared with proctolin” value in data set [2] is “higher than that of proctolin”.
“RYL[β3P]T [Analog 2331] (H-RYL[β3hP]T-OH; N-terminus and C-terminus assumed; SMILES CC(C)C[C@H](NC(=O)[C@H](Cc1ccc(O)cc1)NC(=O)[C@@H](N)CCCNC(=N)N)C(=O)N1CCC[C@H]1CC(=O)N[C@H](C(=O)O)[C@@H](C)O)”: the “efficacy … compared with proctolin” value in data set [2] was “higher than that of proctolin”.

In general, EC50 refers to the concentration giving half of the maximal effect.
